Results reported in patent US20240124872A1, “IDENTIFICATION OF GENOMIC TARGETS” (University of Leeds, priority 2021, published 2024).

Tests used:
[1] = system: HeLa cells stably expressing CaMPARI-H396K; test: AITC responsiveness via Fura-2 calcium imaging; assay type: cell-based; settings: unmodified HeLa cells stably expressing CaMPARI-H396K (HeLa-C); FIG. 4
Procedure: FIG. 4 provides validation of TAGS (AITC-screen for TRPA1). a) a Piggy-Bac library was generated in Hela-C cells, stimulated with 100 uM AITC and co-incident photo-conversion light, and sorted via FACS based on CaMPARI red/green signal. b) Positive clones were collected as single cells, expanded into clonal populations, and testing for AITC responsiveness via Fura-2 calcium imaging. Percent responding cells are shown for each population. c-d) Example Fura-2 imaging traces. c) phenotypic negativity of HeLa-C cells. d) Example traces from population #22 in b. e) Genotyping of 100% responders. […] Blue arrows highlight transcription start site (TSS) of TRPA1. Red arrows highlight the true common insertion site (CIS) upstream of the TSS, found in every clone genotyped.
A test sample from each positive clonal line was loaded with the fluorescent calcium indicator Fura-2AM for 30 minutes in regular media supplemented with 1 ul/ml PluronicF127, washed with Ringer solution, and tested for positivity for the phenotype in question using conventional fluorescent microscopy (see FIG. 4a-d). A further test sample from confirmed positive clonal lines was transfected (as described above) with the pCAG-Cre vector (Addgene) to induce transient Cre recombinase expression. Phenotypic positivity was then re-tested as above, and populations in which the phenotype […] are discarded. […]

TRPA1 knockout mice = settings: cited from earlier work

Compound: C=CCN=C=S [AITC]
- AITC responses (calcium signalling) [1]: phenotypically negative
- sensitivity to AITC (TRPA1 knockout mice): lose all sensitivity
